The record followed here is ChEMBL document CHEMBL5579811, “Synthesis, SARS-CoV-2 main protease inhibition, molecular docking and in silico ADME studies of furanochromene-quinoline hydrazone derivatives” (Bioorg Med Chem Lett, 2024).

The structures appear in SMILES notation. A value given as a limit tells only on which side of the number the result lay.

The target in the experiment is Replicase polyprotein 1ab (Severe acute respiratory syndrome coronavirus 2, UniProt P0DTD1). Put plainly: Inhibition of SARS-COV-2 main protease using fluorogenic substrate (DABCYL)-Lys-Thr- Ser-Ala-Val-Leu-Gln-Ser-Gly-Phe-Arg-Lys-Met-Glu-(EDANS)-NH2 measured every 5 mins for 50 mins by plate reader assay.
In general, IC50 refers to the concentration at which inhibition is half-maximal. A low value points to greater potency in that assay. `CC1(C)C=Cc2c(ccc3cc(C(=O)N/N=C/c4ccc5cccc(O)c5n4)oc23)O1` yielded an IC50 of 183 µM. `CC1(C)C=Cc2c(ccc3cc(C(=O)N/N=C/c4ccnc5ccccc45)oc23)O1`: the IC50 was found to be 129 µM. The compound `CC1(C)C=Cc2c(ccc3cc(C(=O)N/N=C/c4cnc5ccccc5c4)oc23)O1` registered an IC50 of 29.7 µM. `CC1(C)C=Cc2c(ccc3cc(C(=O)N/N=C/c4ccc5ncccc5c4)oc23)O1`: half-maximal inhibition (IC50) required 34.1 µM. The value for `CC1(C)C=Cc2c(ccc3cc(C(=O)N/N=C/c4cccc5cccnc45)oc23)O1` was 16.1 µM; that for `CC1(C)C=Cc2c(ccc3cc(C(=O)N/N=C/c4ccc5ccccc5n4)oc23)O1` was over 250 µM.

Consider `CC1(C)C=Cc2c(ccc3cc(C(=O)N/N=C/c4cccc5ncccc45)oc23)O1`, for which the half-inhibitory concentration (IC50) turned out to be 43.1 µM.
